In patent US20040220249A1, “Prevention of surgical adhesions using selective COX-2 inhibitors” (Children's Medical Center Corporation, priority 2003, published 2004):

Tests used:
[1] = tested on: adhesions; details: cited from earlier work
[2] = tested on: intra-abdominal adhesion formation; test: Intra-abdominal adhesion model (laparotomy, cecal abrasion, silicone patch), adhesion score; type: in vivo, mice (C57BL/6); details: for intra-abdominal adhesion score (total, 0-16): 10 days after surgery, oral treatment for 10 days from day of surgery, mean +/- SEM, control 13.6+/-0.49; for decrease of intra-abdominal adhesion formation: FIG. 2, versus control mice; for intra-abdominal adhesion score (total, 0-16), durability: treated for 10 days, observed an additional 25 days before sacrifice (day 35), control 13.4+/-1.0
Protocol: Seven to eight week-old male C57BL/6 mice (Jackson Laboratories, Bar Harbor, Me.) were housed five animals to a cage in a barrier room. Mice were acclimated to their environment for at least 72 hours prior to the initiation of each experiment and allowed food and water ad libitum. Animal protocols complied with the NIH Animal Research Advisory Committee guidelines and were approved by the Children's Hospital Institutional Animal Care and Use Committee. A standard adhesion model was performed as previously described (Chiang 2000). Specifically, a 5.0 mm×5.0 mm square piece of sterile silicone (Dow Corning, Midland, Mich.) was secured intra-abdominally to the right abdominal wall, lateral to the epigastric vessels, with two 7-0 proline sutures under isoflurane anesthesia. The cecum then was gently rubbed with two cotton swabs to promote adhesion formation.
After recovering from anesthesia, groups of mice were treated with either oral methylcellulose alone (100 μl, control) or an experimental drug mixed in 100 μl methylcellulose beginning on the day of surgery for 10 days. […] Mice treated with COX-2 selective inhibitors received either celecoxib (68 mg/kg orally twice a day) or rofecoxib (40 mg/kg orally once a day) (Laudanno 2001).
Ten and 35 days after surgery, mice were euthanized and adhesion formation over the silicone patch was measured by two blinded individuals based on a previously described scoring system (Chiang S, et al. J Ped Surg. 2000, 35, 189-196). The tenacity, type, and extent of adhesions to the patch, as well as the extent of adhesions to the cecum were graded on a scale of 0 to 4. The total adhesion score was the sum of the four individual scores (see table 1, below). A minimum score was 0 and the maximum score was 16. Tenacity was rated as none (0), adhesions fell apart (1), lysed with traction (2), lysed with blunt dissection (3), lysed with sharp dissection (4). Type was scored as none (0), filmy (1), mildly dense (2), moderately dense (3), very dense (4). Extent was measured as the percent of the patch covered by adhesion: 0% (0), <25% (1), 25-50% (2), 50-75% (3), >75% (4). Cecal adhesions were graded as none (0), adhesions fell apart (1), lysed with traction (2), lysed with blunt dissection (3), lysed with sharp dissection (4).

[3] = tested on: endothelium (CD31/PECAM-1) of granulation tissue; test: Microvessel density of granulation tissue surrounding the silicone patch (CD31 immunostaining, image analysis); type: in vivo, mice (C57BL/6); details: day 10; CD31-stained area as proportion of total area; mean ± SEM; control 6.4±0.6
Protocol: Silicone patches and abdominal wall were fixed at 4 degrees Celsius in 10% formalin overnight and washed with phosphate buffered saline. The specimens were then embedded in paraffin and 5 micron sections were cut. Endothelial cells were identified by antibody staining against the endothelial cell surface antigen CD31 (PECAM-1) and a diaminobenzidine chromogen (BD Biosciences Pharmingen, San Diego, Calif.). After deparaffinization and rehydration, sections were incubated with proteinase K (Roche, Basel, Switzerland) for 30 min at 37° C. Non-specific binding sites were blocked for 30 min at room temperature with TNB blocking buffer (NEN Life Sciences, Boston, Mass.). Primary CD31 antiserum (Pharmingen) was added to the sections overnight at 4° C. Slides were washed twice with phosphate buffered saline and secondary goat anti-mouse IgG antibody (Vector Laboratories, Burlingame, Calif.) was then added for 30 min at room temperature. After again washing twice with PBS the slides were incubated with streptavidin alkaline phosphatase solution (1:100) (Perkin-Elmer Life Sciences, Boston, Mass.) for 30 min at room temperature followed by biotinyl tyramide amplification dilutent (1:50) (Perkin-Elmer Life Sciences) for 10 min. After repeat incubation with alkaline phosphatase solution (1:100), for 30 min at room temperature, the chromagen, Vector Novar substrate kit (Vector Laboratories) was added. Slides were lightly counterstained with hematoxylin for imaging.
Sections were taken from the abdominal wall, patch, and lesions at sacrifice on day 10. To quantitate vessel density, CD31 immunostained sections underwent digital image analysis using a Nikon Eclipse TE300 inverting photomicroscope with an attached Spot RT (Diagnostic Instruments Inc.) video camera linked to a personal computer. Images were imported directly to the image analysis program IP Lab (Scanalytics Inc., Fairfax, Va.). Sequential images were grabbed at 200× for the […] sections without overlapping. To calculate the volume fraction of stained regions, a color threshold was chosen for each image that distinguished between the stained areas and background. The proportion of the selected color was calculated as a percentage of total area and used as a measure of vessel density. Sections from 3 different mice for each of the study groups were examined and vascularization was scanned and quantified in 5 representative fields per section.

Compound | side-effects ([1]; literature) | inhibition of adhesions ([1]; murine model (Chiang 2001)) | macroscopic adhesion formation over the silicone patch (photograph) ([2]; 10 days after laparotomy, cecal abrasions and silicone patch placement, FIG. 1) | intra-abdominal adhesion score (total, 0-16) [2] | decrease of intra-abdominal adhesion formation [2] | intra-abdominal adhesion score (total, 0-16), durability [2] | microvessel density of granulation tissue surrounding the silicone patch [3]
CO[C@@H]1[C@H](OC(=O)NC(=O)CCl)CC[C@]2(CO2)[C@H]1[C@@]1(C)O[C@@H]1CC=C(C)C [TNP-470] | absence of healing of abdominal wounds | inhibit adhesions |  |  |  |  | 
CC(=O)Oc1ccccc1C(=O)O [aspirin] |  |  | dense adhesion formation over the silicone patch | 13.8+/−0.4 | no effect | 12.2+/−1.2 | 13.3±1.0
Cc1ccc(-c2cc(C(F)(F)F)nn2-c2ccc(S(N)(=O)=O)cc2)cc1 [celecoxib] |  |  |  | 1.36+/−0.5 | 74% | 1.5+/−0.9 | 3.8±0.8
CC(C)Cc1ccc(C(C)C(=O)O)cc1 (stereo not shown) [ibuprophen] |  |  |  | 7.8+/−1.4 |  |  | 9.9±1.1
COc1ccc2c(c1)c(CC(=O)O)c(C)n2C(=O)c1ccc(Cl)cc1 [indomethacin] |  |  |  | 7.3+/−1.7 |  |  | 11.3±1.5
COc1ccc2cc([C@H](C)C(=O)O)ccc2c1 [naproxen] |  |  |  | 8.4+/−2.2 |  |  | 
CS(=O)(=O)c1ccc(C2=C(c3ccccc3)C(=O)OC2)cc1 [rofecoxib] |  |  |  | 3.6+/−1.1 | 91% |  | 7.9±0.6
